Read-outs that look alike come from different tables or passages of the source.

These results are taken from patent publication US10308639B2, “Phosphatidylinositol 3-kinase inhibitors” (Gilead Sciences, Inc., priority 2014, dated 2019).

Holding throughout (type): biochemical
One test deals with T1, PI3Kδ (Homo sapiens, UniProt O00329).
T1 construct: made in house
Put plainly: TR-FRET enzymatic activity assay, PI3Kδ. On the technique in general: TR-FRET usually uses a lanthanide donor and a delayed reading to cut background.

The target in the next test is T2, PI3Kγ (Homo sapiens, UniProt P48736).
T2 construct: made in house
Kind of test: TR-FRET enzymatic activity assay, PI3Kγ. As to the method: The compounds of formula (I) were characterized for their enzymatic activity against the PI3K isoforms. The activities were measured using a time-resolved fluorescence resonance energy transfer (TR-FRET) assay.

In the next test the target is T3, PI3Kβ (Homo sapiens, UniProt P42338).
T3 construct: made in house
Put plainly: TR-FRET enzymatic activity assay, PI3Kβ.

Setting [1] is: Table 2, TR-FRET, 2x Km ATP, 30 minutes at 25° C.
[2] abbreviates: Table 2, TR-FRET, 2x Km ATP, 30 minutes at 25° C., read-out: PI3Kγ IC50.
The mark [3] stands for this setting: Table 2a, same assay, read-out: PI3Kγ IC50.

T2 sequence (P48736 whole entry): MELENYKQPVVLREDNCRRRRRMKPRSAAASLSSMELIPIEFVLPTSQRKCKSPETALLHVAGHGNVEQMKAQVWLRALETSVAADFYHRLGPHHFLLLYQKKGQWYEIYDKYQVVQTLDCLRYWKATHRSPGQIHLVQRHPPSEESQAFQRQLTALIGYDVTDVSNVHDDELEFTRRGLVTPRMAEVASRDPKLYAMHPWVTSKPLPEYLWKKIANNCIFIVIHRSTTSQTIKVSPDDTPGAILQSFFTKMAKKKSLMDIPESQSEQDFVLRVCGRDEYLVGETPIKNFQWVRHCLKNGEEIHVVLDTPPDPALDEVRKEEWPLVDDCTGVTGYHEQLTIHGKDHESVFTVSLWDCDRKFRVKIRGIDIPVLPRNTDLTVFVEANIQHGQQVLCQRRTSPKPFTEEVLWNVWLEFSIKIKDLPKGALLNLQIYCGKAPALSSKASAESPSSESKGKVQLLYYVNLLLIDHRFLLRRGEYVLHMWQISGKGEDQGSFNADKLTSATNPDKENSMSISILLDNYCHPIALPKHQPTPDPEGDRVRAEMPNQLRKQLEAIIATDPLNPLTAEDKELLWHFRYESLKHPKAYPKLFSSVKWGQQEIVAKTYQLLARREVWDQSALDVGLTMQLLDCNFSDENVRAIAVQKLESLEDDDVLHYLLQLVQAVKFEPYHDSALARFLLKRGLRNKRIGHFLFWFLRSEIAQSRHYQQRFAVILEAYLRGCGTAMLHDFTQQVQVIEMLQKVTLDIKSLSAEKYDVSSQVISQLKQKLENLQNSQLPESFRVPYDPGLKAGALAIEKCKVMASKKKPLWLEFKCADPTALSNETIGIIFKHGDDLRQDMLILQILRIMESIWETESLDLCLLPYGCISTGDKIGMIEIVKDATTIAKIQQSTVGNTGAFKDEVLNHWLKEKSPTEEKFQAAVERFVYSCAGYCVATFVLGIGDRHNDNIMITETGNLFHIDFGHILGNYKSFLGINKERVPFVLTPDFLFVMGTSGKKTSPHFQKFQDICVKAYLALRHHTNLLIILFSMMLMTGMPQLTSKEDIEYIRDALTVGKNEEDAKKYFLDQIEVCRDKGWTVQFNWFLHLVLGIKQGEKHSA
T1 sequence (O00329 whole entry): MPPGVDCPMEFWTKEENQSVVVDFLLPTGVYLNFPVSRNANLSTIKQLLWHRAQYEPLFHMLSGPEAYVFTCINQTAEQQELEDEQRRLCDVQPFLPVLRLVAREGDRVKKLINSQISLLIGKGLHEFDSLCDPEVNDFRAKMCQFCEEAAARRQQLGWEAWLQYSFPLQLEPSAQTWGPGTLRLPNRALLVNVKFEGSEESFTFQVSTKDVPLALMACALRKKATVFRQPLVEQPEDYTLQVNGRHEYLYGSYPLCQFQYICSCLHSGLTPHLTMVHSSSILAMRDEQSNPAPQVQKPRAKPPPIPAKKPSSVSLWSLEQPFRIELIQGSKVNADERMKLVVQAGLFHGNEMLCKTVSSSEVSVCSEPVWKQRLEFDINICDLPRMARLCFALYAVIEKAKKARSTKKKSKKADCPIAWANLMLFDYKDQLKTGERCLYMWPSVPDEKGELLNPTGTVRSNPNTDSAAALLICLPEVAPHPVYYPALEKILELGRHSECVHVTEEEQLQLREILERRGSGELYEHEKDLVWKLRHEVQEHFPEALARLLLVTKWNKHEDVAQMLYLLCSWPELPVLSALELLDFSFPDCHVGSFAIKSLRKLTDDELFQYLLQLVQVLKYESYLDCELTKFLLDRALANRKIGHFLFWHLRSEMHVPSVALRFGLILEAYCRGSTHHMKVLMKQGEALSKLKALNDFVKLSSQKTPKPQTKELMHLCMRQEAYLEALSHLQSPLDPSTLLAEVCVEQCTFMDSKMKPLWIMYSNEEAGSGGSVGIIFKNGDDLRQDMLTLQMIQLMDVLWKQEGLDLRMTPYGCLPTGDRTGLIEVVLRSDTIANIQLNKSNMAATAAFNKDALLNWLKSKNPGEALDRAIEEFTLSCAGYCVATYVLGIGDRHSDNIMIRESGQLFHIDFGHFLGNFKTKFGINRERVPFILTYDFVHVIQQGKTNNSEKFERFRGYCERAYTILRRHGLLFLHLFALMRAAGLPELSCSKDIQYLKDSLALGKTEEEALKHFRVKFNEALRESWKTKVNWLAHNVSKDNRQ
T1 sequence (P27986 whole entry partner): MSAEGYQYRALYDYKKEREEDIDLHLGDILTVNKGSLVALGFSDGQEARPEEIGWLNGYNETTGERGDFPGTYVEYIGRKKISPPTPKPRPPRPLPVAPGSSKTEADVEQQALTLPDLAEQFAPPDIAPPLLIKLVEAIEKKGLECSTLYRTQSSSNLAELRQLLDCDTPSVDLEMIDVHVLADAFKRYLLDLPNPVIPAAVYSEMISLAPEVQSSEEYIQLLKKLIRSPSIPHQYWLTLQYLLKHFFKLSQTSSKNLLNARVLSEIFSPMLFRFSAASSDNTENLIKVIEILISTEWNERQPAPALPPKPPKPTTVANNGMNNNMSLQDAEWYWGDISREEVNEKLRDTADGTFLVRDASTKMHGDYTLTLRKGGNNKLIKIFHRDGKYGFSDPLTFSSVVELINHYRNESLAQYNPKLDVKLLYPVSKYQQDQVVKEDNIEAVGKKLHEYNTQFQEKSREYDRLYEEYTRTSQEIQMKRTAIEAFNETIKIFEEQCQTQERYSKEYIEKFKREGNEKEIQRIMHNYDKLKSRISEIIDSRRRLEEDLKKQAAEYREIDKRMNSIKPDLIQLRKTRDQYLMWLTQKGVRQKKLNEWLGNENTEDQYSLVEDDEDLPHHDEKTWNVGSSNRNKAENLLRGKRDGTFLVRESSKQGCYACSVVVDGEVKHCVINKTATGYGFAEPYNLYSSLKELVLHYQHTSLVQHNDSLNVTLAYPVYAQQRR
T3 sequence (P42338 whole entry): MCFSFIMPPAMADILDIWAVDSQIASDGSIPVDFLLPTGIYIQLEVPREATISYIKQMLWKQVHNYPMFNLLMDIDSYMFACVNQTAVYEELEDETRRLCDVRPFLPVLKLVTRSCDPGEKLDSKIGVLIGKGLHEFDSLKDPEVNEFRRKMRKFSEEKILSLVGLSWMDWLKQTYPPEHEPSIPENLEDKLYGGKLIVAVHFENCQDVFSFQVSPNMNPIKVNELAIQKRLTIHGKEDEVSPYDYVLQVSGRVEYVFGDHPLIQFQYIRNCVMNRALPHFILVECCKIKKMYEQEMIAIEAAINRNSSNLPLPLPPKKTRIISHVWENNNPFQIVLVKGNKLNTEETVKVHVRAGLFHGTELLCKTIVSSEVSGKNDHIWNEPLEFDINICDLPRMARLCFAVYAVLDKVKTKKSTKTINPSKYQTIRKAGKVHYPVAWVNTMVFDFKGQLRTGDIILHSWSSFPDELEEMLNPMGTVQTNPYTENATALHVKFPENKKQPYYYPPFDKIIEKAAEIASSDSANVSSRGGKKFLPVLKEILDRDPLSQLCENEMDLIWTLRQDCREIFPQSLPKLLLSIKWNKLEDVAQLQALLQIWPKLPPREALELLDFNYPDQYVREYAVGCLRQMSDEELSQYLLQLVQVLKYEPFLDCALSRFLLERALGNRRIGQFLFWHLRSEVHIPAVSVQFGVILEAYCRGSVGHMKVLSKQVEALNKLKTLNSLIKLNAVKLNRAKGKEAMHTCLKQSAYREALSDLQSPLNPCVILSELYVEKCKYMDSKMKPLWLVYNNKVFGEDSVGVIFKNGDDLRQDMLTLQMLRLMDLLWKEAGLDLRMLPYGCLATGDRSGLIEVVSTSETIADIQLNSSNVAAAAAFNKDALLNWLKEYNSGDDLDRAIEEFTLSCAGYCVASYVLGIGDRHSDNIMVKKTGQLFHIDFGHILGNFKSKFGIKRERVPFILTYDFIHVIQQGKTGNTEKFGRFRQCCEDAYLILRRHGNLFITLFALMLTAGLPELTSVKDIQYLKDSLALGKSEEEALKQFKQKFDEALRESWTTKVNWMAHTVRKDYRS
T3 sequence (P27986 whole entry partner): as the sequence (P27986 whole entry partner) above

The term IC50 denotes the concentration at which inhibition is half-maximal. In the case of `CC[C@H](Nc1nc(N)nc(N)c1C#N)c1nc2cccc(Cl)c2c(=O)n1-c1cn[nH]c1` [Compound 21, (S)-2,4-diamino-6-((1-(5-chloro-4-oxo-3-(1H-pyrazol-4-yl)-3,4-dihydroquinazolin-2-yl)propyl)amino)pyrimidine-5-carbonitrile], the concentration for half-maximal inhibition (IC50) at PI3Kδ (setting [1]) was 0.002 µM; on PI3Kγ (setting [2]), 0.23 µM; against PI3Kβ (setting [1]), 0.009 µM.
As to `C[C@H](Nc1nc(N)nc(N)c1Cl)c1nc2cccc(Cl)c2c(=O)n1-c1cn[nH]c1` [Compound 157, (S)-5-chloro-2-(1-((2,6-diamino-5-chloropyrimidin-4-yl)amino)ethyl)-3-(1H-pyrazol-4-yl)quinazolin-4(3H)-one], the IC50 against PI3Kδ (Table 2a, same assay) stood at 0.002 µM; on PI3Kγ (setting [3]) it was 1.2 µM; at PI3Kβ (Table 2a, same assay), 0.015 µM.
For `Nc1nc(N)c(Cl)c(N[C@H](c2nc3c(Cl)cccc3c(=O)n2-c2cc[nH]n2)C2CC2)n1` [Compound 13, (S)-8-chloro-2-(cyclopropyl((2,6-diamino-5-chloropyrimidin-4-yl)amino)methyl)-3-(1H-pyrazol-3-yl)quinazolin-4(3H)-one], the IC50 is 0.039 µM against PI3Kδ (setting [1]), above 10 µM on PI3Kγ (read-out: PI3Kγ IC50) and 0.14 µM on PI3Kβ (setting [1]).
As to `C[C@H](Nc1nc(N)nc(N)c1Cl)c1nc2c(C#N)cc(F)cc2c(=O)n1-c1cc[nH]n1` [Compound 271, (S)-2-(1-((2,6-diamino-5-chloropyrimidin-4-yl)amino)ethyl)-6-fluoro-4-oxo-3-(1H-pyrazol-3-yl)-3,4-dihydroquinazoline-8-carbonitrile], the IC50 against PI3Kδ (Table 2a, same assay) is 0.018 µM; at PI3Kγ (setting [3]), above 10 µM; at PI3Kβ (Table 2a, same assay) it was 0.028 µM.
The corresponding values for `Cc1n[nH]cc1-n1c([C@H](C)Nc2nc(N)nc(N)c2C#N)nc2cccc(Cl)c2c1=O` [Compound 216, (S)-2,4-diamino-6-((1-(5-chloro-3-(3-methyl-1H-pyrazol-4-yl)-4-oxo-3,4-dihydroquinazolin-2-yl)ethyl)amino)pyrimidine-5-carbonitrile] are 0.0004 µM, 0.04 µM and 0.003 µM.
In the case of `N#Cc1c(N)nc(N)nc1N[C@H](c1nc2ccc(F)cc2c(=O)n1-c1cc[nH]n1)C1CC1` [Compound 113, (S)-2,4-diamino-6-((cyclopropyl(6-fluoro-4-oxo-3-(1H-pyrazol-3-yl)-3,4-dihydroquinazolin-2-yl)methyl)amino)pyrimidine-5-carbonitrile], the figures for the IC50 against PI3Kδ (setting [1]), at PI3Kγ (setting [2]) and against PI3Kβ (setting [1]) were 0.001 µM, 0.98 µM and 0.002 µM, respectively.
The corresponding values for `CC[C@H](Nc1nc(N)nc2[nH]nc(Br)c12)c1nc2cccc(C#N)c2c(=O)n1-c1cn[nH]c1` [Compound 79, (S)-2-(1-((6-amino-3-bromo-1H-pyrazolo[3,4-d]pyrimidin-4-yl)amino)propyl)-4-oxo-3-(1H-pyrazol-4-yl)-3,4-dihydroquinazoline-5-carbonitrile] are 0.34 µM, 9 µM and 0.65 µM.
The corresponding values for `CC[C@H](Nc1nc(N)nc(C)c1C#N)c1nc2c(C#N)cccc2c(=O)n1-c1cn[nH]c1` [Compound 93, (S)-2-(1-((2-amino-5-cyano-6-methylpyrimidin-4-yl)amino)propyl)-4-oxo-3-(1H-pyrazol-4-yl)-3,4-dihydroquinazoline-8-carbonitrile] are 0.009 µM, 3.8 µM and 0.016 µM.
With `CCC[C@H](Nc1nc(N)nc(N)c1C#N)c1nc2cccc(Cl)c2c(=O)n1-c1c[nH]cn1` [Compound 283, (S)-2,4-diamino-6-((1-(5-chloro-3-(1H-imidazol-4-yl)-4-oxo-3,4-dihydroquinazolin-2-yl)butyl)amino)pyrimidine-5-carbonitrile], the IC50 at PI3Kδ (Table 2a, same assay) came out at 0.002 µM; on PI3Kγ (setting [3]), 0.74 µM; on PI3Kβ (Table 2a, same assay), 0.003 µM.
The corresponding values for `Nc1nc(N)c(Cl)c(N[C@H](c2nc3ccc(F)c(Cl)c3c(=O)n2-c2cc[nH]n2)C2CC2)n1` [Compound 261, (S)-5-chloro-2-(cyclopropyl((2,6-diamino-5-chloropyrimidin-4-yl)amino)methyl)-6-fluoro-3-(1H-pyrazol-3-yl)quinazolin-4(3H)-one] are 0.012 µM, 5.2 µM and 0.049 µM.
For `C[C@H](Nc1nc(N)nc(C(F)F)c1C#N)c1nc2c(Cl)cc(F)cc2c(=O)n1-c1cn[nH]c1` [Compound 183, (S)-2-amino-4-((1-(8-chloro-6-fluoro-4-oxo-3-(1H-pyrazol-4-yl)-3,4-dihydroquinazolin-2-yl)ethyl)amino)-6-(difluoromethyl)pyrimidine-5-carbonitrile] the same measures were 0.009 µM, 0.84 µM and 0.025 µM.
For `C[C@H](Nc1nc(N)nc(N)c1C#N)c1nc2cccc(Cl)c2c(=O)n1-c1ccccc1` [Compound X, (S)-2,4-diamino-6-((1-(5-chloro-4-oxo-3-phenyl-3,4-dihydroquinazolin-2-yl)ethyl)amino)pyrimidine-5-carbonitrile, reference compound], at PI3Kβ (ratio of IC50 values), the PI3Kγ/PI3Kβ ratio stood at 0.6.
With `Nc1nc(N)c(Cl)c(N[C@H](c2nc3cccc(Cl)c3c(=O)n2-c2cc[nH]n2)C2CCC2)n1` [Compound 127, (S)-5-chloro-2-(cyclobutyl((2,6-diamino-5-chloropyrimidin-4-yl)amino)methyl)-3-(1H-pyrazol-3-yl)quinazolin-4(3H)-one], the IC50 at PI3Kδ (Table 2a, same assay) was found to be 0.021 µM; at PI3Kβ (Table 2a, same assay), 0.049 µM.
For the compound `C[C@H](Nc1nc(N)nc(N)c1C#N)c1nc2cccc(Cl)c2c(=O)n1-c1ccccc1` [(S)-2,4-diamino-6-((1-(5-chloro-4-oxo-3-phenyl-3,4-dihydroquinazolin-2-yl)ethyl)amino)pyrimidine-5-carbonitrile], the “PI3Kγ/PI3Kβ IC50 ratio” value on PI3Kβ (ratio of IC50 values, text b271) was “less than 1 fold”.
Take `C[C@H](Nc1nc(N)nc(C(F)F)c1Cl)c1nc2cc(F)cc(F)c2c(=O)n1-c1cc[nH]n1` [Compound 233, (S)-2-(1-((2-amino-5-chloro-6-(difluoromethyl)pyrimidin-4-yl)amino)ethyl)-5,7-difluoro-3-(1H-pyrazol-3-yl)quinazolin-4(3H)-one]: the IC50 against PI3Kδ (Table 2a, same assay) is 10 µM; on PI3Kγ (setting [3]) it was above 10 µM.
Turning to `C[C@H](Nc1nc(N)nc(C(F)F)c1Cl)c1nc2c(F)c(F)ccc2c(=O)n1-c1cc[nH]n1` [Compound 234, (S)-2-(1-((2-amino-5-chloro-6-(difluoromethyl)pyrimidin-4-yl)amino)ethyl)-7,8-difluoro-3-(1H-pyrazol-3-yl)quinazolin-4(3H)-one], the IC50 on PI3Kδ (Table 2a, same assay) was 7.6 µM; on PI3Kγ (setting [3]) it was above 10 µM.
Consider `Cc1c[nH]nc1-n1c([C@@H](NC2=NC(N)=NC3=NN=C(Br)C32)C2CC2)nc2cccc(Cl)c2c1=O` (stereo partly drawn) [Compound 242, 2-((1 S)-((6-amino-3-bromo-3aH-pyrazolo[3,4-d]pyrimidin-4-yl)amino)(cyclopropyl)methyl)-5-chloro-3-(4-methyl-1H-pyrazol-3-yl)quinazolin-4(3H)-one], for which the IC50 against PI3Kδ (Table 2a, same assay) stood at 0.22 µM; against PI3Kβ (Table 2a, same assay), 1.6 µM.
`C[C@H](Nc1nc(N)nc(C(F)F)c1C#N)c1nc2c(F)cc(F)cc2c(=O)n1-c1cc[nH]n1` [Compound 187, (S)-2-amino-4-((1-(6,8-difluoro-4-oxo-3-(1H-pyrazol-3-yl)-3,4-dihydroquinazolin-2-yl)ethyl)amino)-6-(difluoromethyl)pyrimidine-5-carbonitrile]: the IC50 against PI3Kδ (Table 2a, same assay) came out at 0.006 µM; at PI3Kγ (setting [3]) it was 2.3 µM.
For the compound `CC(C)Cc1cc(-n2c([C@H](C)Nc3ncnc(N)c3C#N)nc3cccc(Cl)c3c2=O)n[nH]1` [Compound 4, (S)-4-amino-6-((1-(5-chloro-3-(5-isobutyl-1H-pyrazol-3-yl)-4-oxo-3,4-dihydroquinazolin-2-yl)ethyl)amino)pyrimidine-5-carbonitrile], the values for the IC50 against PI3Kδ (setting [1]) and on PI3Kβ (setting [1]) were 0.007 µM and 0.084 µM, respectively.
For `CC(C)[C@H](Nc1nc(N)nc(N)c1Cl)c1nc2cccc(Cl)c2c(=O)n1-c1cc[nH]n1` [Compound 146, (S)-5-chloro-2-(1-((2,6-diamino-5-chloropyrimidin-4-yl)amino)-2-methylpropyl)-3-(1H-pyrazol-3-yl)quinazolin-4(3H)-one], the concentration for half-maximal inhibition (IC50) at PI3Kδ (Table 2a, same assay) stood at 0.025 µM; at PI3Kβ (Table 2a, same assay), 0.094 µM.
Regarding `N#Cc1c(Cl)nc(N)nc1N[C@H](c1nc2cccc(Cl)c2c(=O)n1-c1cc[nH]n1)C1CC1` [Compound 63, (S)-2-amino-4-chloro-6-(((5-chloro-4-oxo-3-(1H-pyrazol-3-yl)-3,4-dihydroquinazolin-2-yl)(cyclopropyl)methyl)amino)pyrimidine-5-carbonitrile], at PI3Kγ (setting [2]), the IC50 came out at 1.3 µM.
Regarding `C[C@H](Nc1nc(N)nc(N)c1Cl)c1nc2c(F)cccc2c(=O)n1-c1cc[nH]n1` [Compound 153, (S)-2-(1-((2,6-diamino-5-chloropyrimidin-4-yl)amino)ethyl)-8-fluoro-3-(1H-pyrazol-3-yl)quinazolin-4(3H)-one], the IC50 against PI3Kγ is above 10 µM.
For `C[C@H](Nc1nc(N)nc(C(F)(F)F)c1C#N)c1nc2cccc(Cl)c2c(=O)n1-c1cc[nH]n1` [Compound 168, (S)-2-amino-4-((1-(5-chloro-4-oxo-3-(1H-pyrazol-3-yl)-3,4-dihydroquinazolin-2-yl)ethyl)amino)-6-(trifluoromethyl)pyrimidine-5-carbonitrile], at PI3Kγ (setting [3]), the IC50 is above 10 µM.
The same measure, in the same setting: the same measure for `C[C@H](Nc1nc(N)nc(N)c1Cl)c1nc2c(F)cc(F)cc2c(=O)n1-c1cc[nH]n1` [Compound 161, (S)-2-(1-((2,6-diamino-5-chloropyrimidin-4-yl)amino)ethyl)-6,8-difluoro-3-(1H-pyrazol-3-yl)quinazolin-4(3H)-one]: 4.4 µM.
Compound `C[C@H](Nc1nc(N)nc(N)c1Cl)c1nc2ccc(F)cc2c(=O)n1-c1cc[nH]n1` [Compound 111, (S)-2-(1-((2,6-diamino-5-chloropyrimidin-4-yl)amino)ethyl)-6-fluoro-3-(1H-pyrazol-3-yl)quinazolin-4(3h)-one] displayed an IC50 on PI3Kγ above 10 µM.
